Results from patent US20250296971A1, “GASTRIC INHIBITORY PEPTIDE RECEPTOR LIGANDS” (priority 2021, published 2025).
*1 amine or outer side, *2 acyl side, *3 side chain or, on linkers, in order; H or OH if unused. Where a SMILES comes first, the peptide text is derived from it. Bridges are numbered along the chain shown (N, C = ends). Primed or numbered codes have the meaning given here. Where no end group is shown, it is not given here. Side-chain parts run from the residue outwards. [ ]: non-standard residue; d: D form. The star is where a group is joined. X2 = O=C(O)CN1CCN(CC(=O)O)CCN(CC(=O)N[C@@H](CCC(=O)NC[C@H](O)[C@@H](O)[C@H](O)[C@H](O)CO)C(=O)*)CCN(CC(=O)O)CC1; Ttds = 1,13-diamino-4,7,10-trioxatridecan-succinamic acid, NCCCOCCOCCOCCCNC(=O)CCC(=O)*; NH(1-deoxy-D-glucityl) = OC[C@@H](O)[C@@H](O)[C@H](O)[C@@H](O)CN*; Pro(trans-4-NH2) = O=C([C@@H]1C[C@@H](N[*:3])CN1[*:1])[*:2]; DOTA = O=C(O)CN1CCN(CC(=O)O)CCN(CC(=O)*)CCN(CC(=O)O)CC1; Trp(5-Cl) = N[C@@H](Cc1c[nH]c2ccc(Cl)cc12)C(=O)O; Pyridine(2,6-diCH2) = c1cc(C[*:1])nc(C[*:2])c1; AETO = 2-aminoethane-1-thiol oxidized; mXylylene = c1cc(C[*:1])cc(C[*:2])c1; Glutaryl = O=C(CCCC(=O)[*:2])[*:1]; Hyp = O=C(O)[C@@H]1C[C@@H](O)CN1; X1 = O=C(CN1CCC(N[*:1])CC1)[*:2]; Cysteamide = C(CS[*:3])N[*:1]; hLeu = CC(C)CC[C@H](N)C(=O)O; 2Lut(3) = 2,6-lutidylidene; 3Lut = 3,5-lutidylidene; Api = NC1(C(=O)O)CCNCC1; Thp = NC1(C(=O)O)CCOCC1; Dap = NC[C@H](N)C(=O)O; Aib = CC(C)(N)C(=O)O

Columns and labels:
[1] = target: T1, GIPR (CHO-K1-hGIPR cells) (Homo sapiens, UniProt P48546); assay: FACS binding assay; settings: competition with 20 nM GIP-057, 4° C., 1 hour, read-out: pIC50 Category (converted)
T1 construct: host or cells: CHO-K1
T1 sequence (P48546 22-466): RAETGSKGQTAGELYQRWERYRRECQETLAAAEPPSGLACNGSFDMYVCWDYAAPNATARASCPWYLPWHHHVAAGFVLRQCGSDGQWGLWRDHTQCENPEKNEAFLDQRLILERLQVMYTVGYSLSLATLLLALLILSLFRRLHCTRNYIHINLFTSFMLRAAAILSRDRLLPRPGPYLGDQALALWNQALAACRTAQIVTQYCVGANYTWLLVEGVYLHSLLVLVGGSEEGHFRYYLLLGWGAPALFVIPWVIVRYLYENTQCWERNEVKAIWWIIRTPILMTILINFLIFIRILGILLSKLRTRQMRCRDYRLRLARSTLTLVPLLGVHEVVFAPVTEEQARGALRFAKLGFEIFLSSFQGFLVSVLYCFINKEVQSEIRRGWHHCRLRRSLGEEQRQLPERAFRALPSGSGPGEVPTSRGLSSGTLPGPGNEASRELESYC
Summary of the method: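 CHO-K1 cells stably expressing human GIPR were detached with Accutase, suspended at 500.000 cells per mL in PBS with 1% FCS, and washed ice-cold. Bound peptide was detected with 1 μg/mL APC-streptavidin for 30 min on ice.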

[2] = target: T2, human GIP receptor (bioGIPR) (Homo sapiens, UniProt P48546); assay: Surface plasmon resonance (SPR) based binding assay; settings: Single Cycle Kinetic mode, 25° C.; for t1/2 Category: SPR dissociation half-life; for Kd: SPR, 1:1 Langmuir binding model, read-out: pKD Category (converted)
T2 construct: Biotinylate extracellular of the human GIP receptor (bioGIPR, Proteros biostructures GmbH, lot #02/2b); purchased Proteros biostructures GmbH lot #02/2b
T2 sequence (P48546 22-138 limits assumed): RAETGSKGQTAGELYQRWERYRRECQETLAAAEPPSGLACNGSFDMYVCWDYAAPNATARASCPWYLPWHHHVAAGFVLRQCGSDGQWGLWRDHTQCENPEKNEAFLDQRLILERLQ
Protocol: Surface plasmon resonance (SPR) studies were performed using a Biacore™ T200 SPR system. Briefly, polarized light is directed towards a gold-labeled sensor surface, and minimum intensity reflected light is detected. The angle of reflected light changes as molecules bind and dissociate.
Biotinylate extracellular of the human GIP receptor (bioGIPR, Proteros biostructures GmbH, lot #02/2b) was captured on a biotin capture chip (Biotin CAPture Kit, Series S, GE Healthcare, Cat #28-9202-34). bioGIPR was diluted in Running Buffer (HBST from Xantec Analytics; […], 0.05% Tween20, 0.1% DMSO) to a final concentration 100 nM and than flushed over the Fc-capture chip to immobilized ˜3500 RUs.
Stock solutions of test compounds were prepared by dissolving each compound in DMSO. DMSO stock solution were diluted 1:1000 in Running Buffer without DMSO. Further sequential dilutions were made with Running Buffer containing 0.1% DMSO. SPR binding analyses were performed in Single Cycle Kinetic (SCK) mode at 25° C. Flow cell without immobilized bioGIPR served as reference flowcell. After each SCK run, bioGIRP and the Biotin Capture Reagent was removed with Regeneration Solution (6 M Guanidium, 0.75 M NaOH).
In between every three SCK measurements, a blank run with Running Buffer instead of test compound was included to correct for baseline drifts (double blanking method).
For each test compound, SPR raw data in the form of resonance units (RU) were plotted as sensorgrams using the Biacore™ T200 control software. The signal from the blank sensorgram was subtracted from that of the test compound sensorgram (blank corrected). The blank corrected sensorgram was corrected for baseline drift by subtracting the sensorgram of a SCK run without the test compound (running buffer only). The association rate (kon), dissociation rate (koff), dissociation constant (KD), and t1/2 were calculated from blank corrected SPR data using the 1:1 Langmuir binding model from the Biacore™ T200 evaluation software. Raw data and fit results were imported as text files in IDBS. The pKD value (negative decadic logarithm of dissociation constant) was calculated in the IDBS excel template.

[3] = target: human Gastric Inhibitory Peptide Receptor (human) (UniProt P48546); assay: FACS competition with GIP-057 on CHO-K1-hGIPR cells; pIC50 category A: >8.0

## CC[C@H](C)[C@@H]1NC(=O)[C@H](CC(C)C)NC(=O)C2(CCOCC2)NC(=O)[C@@H](NC(=O)[C@@H](CC(C)C)NC(=O)[C@H](CCC(=O)O)NC(=O)[C@@H]2C[C@@H](O)CN2C(=O)[C@H](Cc2c[nH]c3ccc(Cl)cc23)NC(=O)[C@H](Cc2c[nH]c3ccccc23)NC(=O)[C@H](CC(=O)O)NC(=O)CCCC(=O)NC[C@H](O)[C@@H](O)[C@H](O)[C@H](O)CO)CSCc2cccc(n2)CSC[C@@H](C(=O)NC2CCN(CC(=O)N[C@H](CCC(=O)NC[C@H](O)[C@@H](O)[C@H](O)[C@H](O)CO)C(=O)N[C@@H](CCCCNC(=O)CN3CCN(CC(=O)O)CCN(CC(=O)O)CCN(CC(=O)O)CC3)C(N)=O)CC2)NC1=O [GIP-004, AGLU-Glutar-Asp-Trp-5Clw-Hyp-Glu-leu-[Cys(2Lut)-Thp-Leu-Ile-Cys]-APAc-glu(AGLU)-Lys(DOTA)-NH2] ({NH(1-deoxy-D-glucityl)-Glutaryl}-DW[Trp(5-Cl)][Hyp]E[dL]C[Thp]LIC[X1][dE](NH(1-deoxy-D-glucityl))K(DOTA)-NH2; linker 7-11 via Pyridine(2,6-diCH2))
[1]
  IC50: < 10 nM
[2]
  t1/2 Category: A (t1/2 values>15 min)
  Kd: < 1 nM

## CC[C@H](C)[C@@H]1NC(=O)[C@H](CC(C)C)NC(=O)C2(CCN(C(=O)CN3CCN(CC(=O)O)CCN(CC(=O)O)CCN(CC(=O)O)CC3)CC2)NC(=O)[C@@H](NC(=O)[C@@H](CC(C)C)NC(=O)[C@H](CCC(=O)O)NC(=O)[C@@H]2C[C@@H](NC(=O)CCCC(=O)NC[C@H](O)[C@@H](O)[C@H](O)[C@H](O)CO)CN2C(=O)[C@H](Cc2c[nH]c3ccc(Cl)cc23)NC(=O)[C@H](Cc2c[nH]c3ccccc23)NC(=O)[C@H](CC(=O)O)NC(=O)CN2CCC(NC(=O)CCCC(=O)NC[C@H](O)[C@@H](O)[C@H](O)[C@H](O)CO)CC2)CSCc2cccc(n2)CSC[C@@H](C(=O)NC2CCN(CC(=O)N[C@H](CCC(=O)NC[C@H](O)[C@@H](O)[C@H](O)[C@H](O)CO)C(N)=O)CC2)NC1=O [GIP-006, AGLU-Glutar-APAc-Asp-Trp-5Clw-Tap(AGLU-Glutar)-Glu-leu-[Cys(2Lut)-Apc(DOTA)-Leu-Ile-Cys]-APAc-glu(AGLU)-NH2] ({NH(1-deoxy-D-glucityl)-Glutaryl}-[X1]DW[Trp(5-Cl)][Pro(trans-4-NH2)]([Glutaryl-NH(1-deoxy-D-glucityl)])E[dL]C[Api](DOTA)LIC[X1][dE](NH(1-deoxy-D-glucityl))-NH2; linker 8-12 via Pyridine(2,6-diCH2))
[1]
  IC50: < 10 nM
[2]
  t1/2 Category: A (t1/2 values>15 min)
  Kd: < 1 nM

## CC[C@H](C)[C@@H]1NC(=O)[C@H](CC(C)C)NC(=O)C2(CCN(C(=O)[C@H](CCC(=O)NC[C@H](O)[C@@H](O)[C@H](O)[C@H](O)CO)NC(=O)CN3CCN(CC(=O)O)CCN(CC(=O)O)CCN(CC(=O)O)CC3)CC2)NC(=O)[C@@H](NC(=O)[C@@H](CC(C)C)NC(=O)[C@H](CCC(=O)O)NC(=O)[C@@H]2C[C@@H](NC(=O)CCCC(=O)NC[C@H](O)[C@@H](O)[C@H](O)[C@H](O)CO)CN2C(=O)[C@H](Cc2c[nH]c3ccc(Cl)cc23)NC(=O)[C@H](Cc2c[nH]c3ccccc23)NC(=O)[C@H](CC(=O)O)NC(=O)CN2CCC(NC(=O)CCCC(=O)NC[C@H](O)[C@@H](O)[C@H](O)[C@H](O)CO)CC2)CSCc2cccc(n2)CSC[C@@H](C(=O)NC2CCN(CC(=O)N[C@H](CCC(=O)NC[C@H](O)[C@@H](O)[C@H](O)[C@H](O)CO)C(N)=O)CC2)NC1=O [GIP-007, AGLU-Glutar-APAc-Asp-Trp-5Clw-Tap(AGLU-Glutar)-Glu-leu-[Cys(2Lut)-Apc(DOTA-glu(AGLU))-Leu-Ile-Cys]-APAc-glu(AGLU)-NH2] ({NH(1-deoxy-D-glucityl)-Glutaryl}-[X1]DW[Trp(5-Cl)][Pro(trans-4-NH2)]([Glutaryl-NH(1-deoxy-D-glucityl)])E[dL]C[Api](X2)LIC[X1][dE](NH(1-deoxy-D-glucityl))-NH2; linker 8-12 via Pyridine(2,6-diCH2))
[1]
  IC50: 10 to 79.4 nM
[2]
  t1/2 Category: A (t1/2 values>15 min)
  Kd: < 1 nM

B1: DOTA-Ttds-Asp-Trp-5Clw-Pro-Glu-leu-[Cys(2Lut)-Aib-Leu-Ile-AET] (peptide)
peptide: {DOTA-Ttds}-DW[Trp(5-Cl)]PE[dL]C[Aib]LI[Cysteamide]
modifications: linker (positions not given here) via 2Lut(3); not fully specified (bridges); printed as DOTA-Ttds-Asp-Trp-5Clw-Pro-Glu-leu-[Cys(2Lut)-Aib-Leu-Ile-AET]
[3]
  pIC50: > 8 pic50

## {DOTA-Ttds}-DW[Trp(5-Cl)]PE[dL][Dap][Aib]LI[AETO] (linker (positions not given here) via mXylylene; not fully specified (bridges)) [DOTA-Ttds-Asp-Trp-5Clw-Pro-Glu-leu-[Dap(3MeBn)-Aib-Leu-Ile-AETO]]
[3]
  pIC50: > 8 pic50

B2: DOTA-Ttds-Asp-Trp-5Clw-Pro-Glu-leu-[Dap(3MeBn)-Aib-Leu-Ile-AET] (peptide)
peptide: {DOTA-Ttds}-DW[Trp(5-Cl)]PE[dL][Dap][Aib]LI[Cysteamide]
modifications: linker (positions not given here) via mXylylene; not fully specified (bridges); printed as DOTA-Ttds-Asp-Trp-5Clw-Pro-Glu-leu-[Dap(3MeBn)-Aib-Leu-Ile-AET]
[3]
  pIC50: > 8 pic50

B3: DOTA-Ttds-Asp-Trp-5Clw-Pro-Glu-leu-[Cys(3MeBn)-Aib-Hle-Ile-AET] (peptide)
peptide: {DOTA-Ttds}-DW[Trp(5-Cl)]PE[dL]C[Aib][hLeu]I[Cysteamide]
modifications: linker (positions not given here) via mXylylene; not fully specified (bridges); printed as DOTA-Ttds-Asp-Trp-5Clw-Pro-Glu-leu-[Cys(3MeBn)-Aib-Hle-Ile-AET]
[3]
  pIC50: > 8 pic50

B4: DOTA-Ttds-Asp-Trp-5Clw-Pro-Glu-leu-[Cys(3Lut)-Aib-Leu-Ile-AET] (peptide)
peptide: {DOTA-Ttds}-DW[Trp(5-Cl)]PE[dL]C[Aib]LI[Cysteamide]
modifications: linker (positions not given here) via 3Lut; not fully specified (bridges); printed as DOTA-Ttds-Asp-Trp-5Clw-Pro-Glu-leu-[Cys(3Lut)-Aib-Leu-Ile-AET]
[3]
  pIC50: > 8 pic50

B5: DOTA-Ttds-Asp-Trp-5Clw-Hyp-Glu-leu-[Cys(3MeBn)-Aib-Leu-Ile-AET] (peptide)
peptide: {DOTA-Ttds}-DW[Trp(5-Cl)][Hyp]E[dL]C[Aib]LI[Cysteamide]
modifications: linker (positions not given here) via mXylylene; not fully specified (bridges); printed as DOTA-Ttds-Asp-Trp-5Clw-Hyp-Glu-leu-[Cys(3MeBn)-Aib-Leu-Ile-AET]
[3]
  pIC50: > 8 pic50

## DWXPEXCXLI (N-term DOTA-Ttds; 5Clw; leu (D-Leu); cycle [Cys(3MeBn)..en]; Aib) [DOTA-Ttds-Asp-Trp-5Clw-Pro-Glu-leu-[Cys(3MeBn)-Aib-Leu-Ile-en]]
[3]
  pIC50: > 8 pic50
